Columns and labels:
[1] = system: adenosine receptors; conditions: through the adenosine receptors; cited from earlier work
[2] = target: T1, Notum (Homo sapiens, UniProt Q6P988, C330S); test: SPR equilibrium binding to biotinylated Notum on streptavidin chip; set-up: The human Notum enzyme core comprising amino acids S81–T451 with a C330S mutation; made in house; dialyzed conditioned medium used without purification; conditions: Fig 2a
T1 sequence (Q6P988 81-451 C330S): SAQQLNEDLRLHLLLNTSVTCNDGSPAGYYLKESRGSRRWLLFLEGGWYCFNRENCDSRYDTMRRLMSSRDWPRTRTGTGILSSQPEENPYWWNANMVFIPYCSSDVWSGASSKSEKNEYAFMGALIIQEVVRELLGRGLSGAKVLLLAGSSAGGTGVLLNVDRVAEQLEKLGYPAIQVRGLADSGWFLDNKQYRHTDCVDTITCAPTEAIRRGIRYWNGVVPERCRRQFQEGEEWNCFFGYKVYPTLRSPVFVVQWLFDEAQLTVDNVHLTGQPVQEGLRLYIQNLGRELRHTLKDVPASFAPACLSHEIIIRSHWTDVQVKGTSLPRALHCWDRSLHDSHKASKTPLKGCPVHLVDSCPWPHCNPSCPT

[3] = target: T1, Notum; test: Thermal shift assay (SYPRO Orange) of Notum; conditions: for Thermoflour melting curve fluorescence of Notum: Fig 2c
Description: Reference wells, i.e. solutions without compounds were used to compare the melting temperature (Tm). The experiments were performed in triplicate.

[4] = system: brain; conditions: at plasma concentration 150 µM; cited from earlier work
[5] = in vivo; cited from earlier work

Cn1c(=O)c2c(ncn2C)n(C)c1=O [caffeine, 1,3,7-trimethylxanthine]
Concentration at which CNS stimulating effects are apparent [1]: 2.5 µM
SPR Response ([2]; caffeine conc. 2.861e-8 (unit not given)): 1.14
SPR Response ([2]; caffeine conc. 5.722e-8 (unit not given)): 2.29
SPR Response ([2]; caffeine conc. 1.144e-7 (unit not given)): 3.61
SPR Response ([2]; caffeine conc. 2.289e-7 (unit not given)): 4.16
SPR Response ([2]; caffeine conc. 4.578e-7 (unit not given)): 4.74
SPR Response ([2]; caffeine conc. 9.155e-7 (unit not given)): 5.58
SPR Response ([2]; caffeine conc. 1.831e-6 (unit not given)): 6.88
SPR Response ([2]; caffeine conc. 3.662e-6 (unit not given)): 9.64
SPR Response ([2]; caffeine conc. 7.324e-6 (unit not given)): 12.15
SPR Response ([2]; caffeine conc. 1.465e-5 (unit not given)): 16.8
SPR Response ([2]; caffeine conc. 2.93e-5 (unit not given)): 23.59
SPR Response ([2]; caffeine conc. 5.859e-5 (unit not given)): 31.69
SPR Response ([2]; caffeine conc. 0.0001172 (unit not given)): 41.28
SPR Response ([2]; caffeine conc. 0.0002344 (unit not given)): 50.77
SPR Response ([2]; caffeine conc. 0.0004687 (unit not given)): 61.29
SPR Response ([2]; caffeine conc. 0.0009375 (unit not given)): 71.68
SPR Response ([2]; caffeine conc. 0.001875 (unit not given)): 81.69
Melting temperature (Tm) of Notum [3]: 66.4 °C
Concentration from which the Tm of Notum starts to increase ([3]; 2-fold dilution series 1-1000 µM, dose-dependent): 32 µM
Thermoflour melting curve fluorescence of Notum ([3]; compound 500 µM, Temperature 24.5): 709.927
Thermoflour melting curve fluorescence of Notum ([3]; compound 500 µM, Temperature 25.5): 611.276
Thermoflour melting curve fluorescence of Notum ([3]; compound 500 µM, Temperature 26.5): 506.395
Thermoflour melting curve fluorescence of Notum ([3]; compound 500 µM, Temperature 27.5): 407.771
Thermoflour melting curve fluorescence of Notum ([3]; compound 500 µM, Temperature 28.5): 329.046
Thermoflour melting curve fluorescence of Notum ([3]; compound 500 µM, Temperature 29.5): 252.252
Thermoflour melting curve fluorescence of Notum ([3]; compound 500 µM, Temperature 30.5): 185.878
Thermoflour melting curve fluorescence of Notum ([3]; compound 500 µM, Temperature 31.5): 116.312
Thermoflour melting curve fluorescence of Notum ([3]; compound 500 µM, Temperature 32.5): 36.8288
Thermoflour melting curve fluorescence of Notum ([3]; compound 500 µM, Temperature 33.5): -33.9223
Thermoflour melting curve fluorescence of Notum ([3]; compound 500 µM, Temperature 34.5): -98.3184
Thermoflour melting curve fluorescence of Notum ([3]; compound 500 µM, Temperature 35.5): -160.078
Thermoflour melting curve fluorescence of Notum ([3]; compound 500 µM, Temperature 36.5): -227.439
Thermoflour melting curve fluorescence of Notum ([3]; compound 500 µM, Temperature 37.5): -299.113
Thermoflour melting curve fluorescence of Notum ([3]; compound 500 µM, Temperature 38.5): -356.595
Thermoflour melting curve fluorescence of Notum ([3]; compound 500 µM, Temperature 39.5): -384.234
Thermoflour melting curve fluorescence of Notum ([3]; compound 500 µM, Temperature 40.5): -401.667
Thermoflour melting curve fluorescence of Notum ([3]; compound 500 µM, Temperature 41.5): -422.587
Thermoflour melting curve fluorescence of Notum ([3]; compound 500 µM, Temperature 42.5): -436.447
Thermoflour melting curve fluorescence of Notum ([3]; compound 500 µM, Temperature 43.5): -433.953
Thermoflour melting curve fluorescence of Notum ([3]; compound 500 µM, Temperature 44.5): -407.23
Thermoflour melting curve fluorescence of Notum ([3]; compound 500 µM, Temperature 45.5): -370.506
Thermoflour melting curve fluorescence of Notum ([3]; compound 500 µM, Temperature 46.5): -329.743
Thermoflour melting curve fluorescence of Notum ([3]; compound 500 µM, Temperature 47.5): -279.561
Thermoflour melting curve fluorescence of Notum ([3]; compound 500 µM, Temperature 48.5): -224.386
Thermoflour melting curve fluorescence of Notum ([3]; compound 500 µM, Temperature 49.5): -154.955
Thermoflour melting curve fluorescence of Notum ([3]; compound 500 µM, Temperature 50.5): -68.5872
Thermoflour melting curve fluorescence of Notum ([3]; compound 500 µM, Temperature 51.5): 21.0565
Thermoflour melting curve fluorescence of Notum ([3]; compound 500 µM, Temperature 52.5): 104.977
Thermoflour melting curve fluorescence of Notum ([3]; compound 500 µM, Temperature 53.5): 203.138
Thermoflour melting curve fluorescence of Notum ([3]; compound 500 µM, Temperature 54.5): 335.417
Thermoflour melting curve fluorescence of Notum ([3]; compound 500 µM, Temperature 55.5): 489.845
Thermoflour melting curve fluorescence of Notum ([3]; compound 500 µM, Temperature 56.5): 650.176
Thermoflour melting curve fluorescence of Notum ([3]; compound 500 µM, Temperature 57.5): 838.955
Thermoflour melting curve fluorescence of Notum ([3]; compound 500 µM, Temperature 58.5): 1115.22
Thermoflour melting curve fluorescence of Notum ([3]; compound 500 µM, Temperature 59.5): 1497.71
Thermoflour melting curve fluorescence of Notum ([3]; compound 500 µM, Temperature 60.5): 2046.51
Thermoflour melting curve fluorescence of Notum ([3]; compound 500 µM, Temperature 61.5): 2842.67
Thermoflour melting curve fluorescence of Notum ([3]; compound 500 µM, Temperature 62.5): 4016.35
Thermoflour melting curve fluorescence of Notum ([3]; compound 500 µM, Temperature 63.5): 5616.14
Thermoflour melting curve fluorescence of Notum ([3]; compound 500 µM, Temperature 64.5): 7625.37
Thermoflour melting curve fluorescence of Notum ([3]; compound 500 µM, Temperature 65.5): 9844.37
Thermoflour melting curve fluorescence of Notum ([3]; compound 500 µM, Temperature 66.5): 11980.7
Thermoflour melting curve fluorescence of Notum ([3]; compound 500 µM, Temperature 67.5): 13878
Thermoflour melting curve fluorescence of Notum ([3]; compound 500 µM, Temperature 68.5): 15429.9
Thermoflour melting curve fluorescence of Notum ([3]; compound 500 µM, Temperature 69.5): 16655.6
Thermoflour melting curve fluorescence of Notum ([3]; compound 500 µM, Temperature 70.5): 17623.3
Thermoflour melting curve fluorescence of Notum ([3]; compound 500 µM, Temperature 71.5): 18396.4
Thermoflour melting curve fluorescence of Notum ([3]; compound 500 µM, Temperature 72.5): 18998.9
Thermoflour melting curve fluorescence of Notum ([3]; compound 500 µM, Temperature 73.5): 19494.1
Thermoflour melting curve fluorescence of Notum ([3]; compound 500 µM, Temperature 74.5): 19890
Thermoflour melting curve fluorescence of Notum ([3]; compound 500 µM, Temperature 75.5): 20222.9
Thermoflour melting curve fluorescence of Notum ([3]; compound 500 µM, Temperature 76.5): 20511.4
Thermoflour melting curve fluorescence of Notum ([3]; compound 500 µM, Temperature 77.5): 20720.5
Thermoflour melting curve fluorescence of Notum ([3]; compound 500 µM, Temperature 78.5): 20881
Thermoflour melting curve fluorescence of Notum ([3]; compound 500 µM, Temperature 79.5): 21035.4
Thermoflour melting curve fluorescence of Notum ([3]; compound 500 µM, Temperature 80.5): 21171.7
Thermoflour melting curve fluorescence of Notum ([3]; compound 500 µM, Temperature 81.5): 21266.6
Thermoflour melting curve fluorescence of Notum ([3]; compound 500 µM, Temperature 82.5): 21332.1
Thermoflour melting curve fluorescence of Notum ([3]; compound 500 µM, Temperature 83.5): 21375.7
Thermoflour melting curve fluorescence of Notum ([3]; compound 500 µM, Temperature 84.5): 21418.3
Thermoflour melting curve fluorescence of Notum ([3]; compound 500 µM, Temperature 85.5): 21484.5
Thermoflour melting curve fluorescence of Notum ([3]; compound 500 µM, Temperature 86.5): 21557.9
Thermoflour melting curve fluorescence of Notum ([3]; compound 500 µM, Temperature 87.5): 21630
Thermoflour melting curve fluorescence of Notum ([3]; compound 500 µM, Temperature 88.5): 21668.9
Thermoflour melting curve fluorescence of Notum ([3]; compound 500 µM, Temperature 89.5): 21631
Thermoflour melting curve fluorescence of Notum ([3]; compound 500 µM, Temperature 90.5): 21594.2
Thermoflour melting curve fluorescence of Notum ([3]; compound 500 µM, Temperature 91.5): 21585.2
Thermoflour melting curve fluorescence of Notum ([3]; compound 500 µM, Temperature 92.5): 21573.1
Thermoflour melting curve fluorescence of Notum ([3]; compound 500 µM, Temperature 93.5): 21559.5
Thermoflour melting curve fluorescence of Notum ([3]; compound 500 µM, Temperature 94.5): 21527.2
Thermoflour melting curve fluorescence of Notum ([3]; compound 500 µM, Temperature 95.5): 21485.4
Thermoflour melting curve fluorescence of Notum ([3]; compound 500 µM, Temperature 96.5): 21486.2
Thermoflour melting curve fluorescence of Notum ([3]; compound 500 µM, Temperature 97.5): 21505.1
∆Tm of Notum ([3]; compound 500 µM, versus Notum without compounds): 2.8 °C
Adverse effects on the brain [4]: does not appear to have adverse effects on the brain
Plasma concentration at therapeutic use [5]: ≤ 150 µM

Source: article PMC7544826 (Communications Biology, 2020)
